Test system: Ramos cells
Assay: Label-free quantitative proteomics in Ramos cells
Assay type: cell-based, Homo sapiens
Details: 24 h; for Difference for 50 nM, C11orf98 / Difference for 100 nM, C11orf98: protein C11orf98 (E9PRG8); for Difference for 50 nM, MED19 / Difference for 100 nM, MED19: protein MED19 (A0JLT2); for Difference for 50 nM, MIF4GD / Difference for 100 nM, MIF4GD: protein MIF4GD (A9UHW6); for Difference for 50 nM, MAP1LC3B;MAP1LC3B2;MAP1LC3A / Difference for 100 nM, MAP1LC3B;MAP1LC3B2;MAP1LC3A: proteins MAP1LC3B;MAP1LC3B2;MAP1LC3A
Experimental: To assess their proteomic selectivity, we incubated the PROTACs at 50 or 100 nM for 24 h with Ramos cells and followed the change in protein abundance via quantitative label-free proteomics (Figure 7, Supporting Figure 6). In agreement with the Western blot analysis, BTK was efficiently degraded by all the PROTACs we tested. […] Ramos cells were incubated with each PROTAC (50 nM) or DMSO in quadruplicates for 24 h and were then subjected to label-free quantitative proteomics analysis. Each graph plots the Log2 fold-change of proteins in the treated samples compared to the DMSO controls (x-axis) vs the −log(p-value) of that comparison in a Student’s t test (y-axis). […]
supplemented with 300 mM imidazole). The His tag was cleaved by the addition of TEV protease with concomitant dialysis overnight into cleavage buffer (50 mM Tris, pH 8.0, 0.5 mM EDTA, 1 mM DTT) at 4°C. The resulting soluble protein was passed ov er Ni -NTA beads to remove the protease and purified further by gel filtration on a HiLoad_16/60_Superdex_75 (GE Healthcare) column equilibrated with 20 mM Tris, pH 8.0, 50 mM NaCl, 1 mM DTT. The pure protein was then flash-frozen in liquid nitrogen and stored at −80°C.
C57BL/6 mice were purchased from Harlan (Rehovot, Israel) and maintained in a pathogen-free facility, experiments were carried on 8-12 weeks old male mice. All exp eriments with mice were approved by the Weizmann Institute Animal Care and Use Committee.
Splenic cells from C57BL/6 mice were isolated by forcing spleen tissue through mesh into PBS containing 2% fetal calf serum and 1 mM EDTA and red blood cells were depleted by lysis buffer. Cells were cultured in 96-well U-b ottom dishes (1x10^6 cells/m L in RPMI 10% […]
nM, 10 nM, 1 nM, 0.1 nM) for 24 hours at 37° C in 5% humidified CO2 incubator. Following a 24 hours incubation, cells were stimulated with anti-IgM overnight (5 µg/mL, Sigma-Aldrich). Subsequently, cells were stained with anti-B220 (clone RA3-6B2, Biolegend) and anti-CD86 (clone GL-1, Biolegend) antibodies for 30 minutes at 4°C. Single cell suspensions were analyzed by a flow cytometer (CytoFlex, Beckman Coulter).
Cells were analyzed by intensity based, label-free mass spectrometry based proteomics.
Sample preparation: 106 Ramos cells were treated in four replicates with either compound or DMSO for 24 hours. Cells were then washed twice by centrifuge at 200 rcf, 4°C for 5 minutes, removing the supernatant and washed with ice cold PBS. Samp les were then centrifuged at 200 rcf, 4°C for 5 minutes, then supernatant was removed and samples were frozen at -80°C.
Samples were dispersed in 75 µl of 50 mM ammonium bicarbonate, and transferred to 1.8 mL glass vials. 75 µl of 10% SDS in 50 mM ammonium bicarbonate were added and the samples were heated to 96° C for 6 minutes. The samples were sonicated thoroughly in a sonication bath until the DNA was sheared as indicated by reduction in viscosity to level enabling easy pipettation. Total protein concentration was estimated using BCA as say and 30 µg from each sample was taken for the experiment. […]
to 60°C for 45 minutes. The samples were cooled to room temperature, and 1/20 volume of […]
200 mM iodoacetamide was added and the reaction was performed in the dark for 30 minutes.
At this point, 1/10 volume of 12% phosphoric acid was added, followed by 6 volume […]
of 90% methanol in 50 mM ammonium bicarbonate. The samples were loaded on S-trap Micro […]
columns (Protify), and washed 3 times with 90% methanol in 50 mM ammonium bicarbonate.
The columns were spun without washing to dry the methanol. Then, 1 µg of trypsin (Promga) […]
in 20 µl of 50 mM ammonium bicarbonate was added to each column, and they were incubated […]
at 47° C for 1. 5 hours. Then, 40 µl of 50 mM ammonium bicarbonate was added and the sample […]
was eluted and another 0. 5 µg of trypsin was added, fo llowed by overnight incubation at 37 ° C.
The columns themselves were further eluted with 40 µl 0.2% formic acid in water, followed […]

[1] = 50 nM, Log2 fold-change vs DMSO
[2] = 100 nM, Log2 fold-change vs DMSO

SMILES | effect on off-targets LCK and PLK1 (50 or 100 nM) | off-targets degraded (CSK, LYN, BLK) (50 or 100 nM) | Difference for 50 nM, C11orf98 [1] | Difference for 100 nM, C11orf98 [2] | Difference for 50 nM, MED19 [1] | Difference for 100 nM, MED19 [2] | Difference for 50 nM, MIF4GD [1] | Difference for 100 nM, MIF4GD [2] | Difference for 50 nM, MAP1LC3B;MAP1LC3B2;MAP1LC3A [1] | Difference for 100 nM, MAP1LC3B;MAP1LC3B2;MAP1LC3A [2] | further results
Nc1ncnc2c1c(-c1ccc(Oc3ccccc3)cc1)nn2C1CCCN(C(=O)C=CCOCCOCCOCCOCCOCCOc2cccc3c2C(=O)N(C2CCC(=O)NC2=O)C3=O)C1 (stereo not shown) [IR-1] | not significantly affected | degraded the known ibrutinib off-targets CSK, LYN, and BLK | -0.4718 | 0.1735 | 0.1815 | -0.5554 | -0.2478 | -0.02661 | 0.1478 | 0.3122 | Difference for 50 nM, RGPD3;RGPD4 (proteins RGPD3;RGPD4, 50 nM, Log2 fold-change vs DMSO): 0.0493; Difference for 100 nM, RGPD3;RGPD4 (proteins RGPD3;RGPD4, 100 nM, Log2 fold-change vs DMSO): 0.2554
Nc1ncnc2c1c(-c1ccc(Oc3ccccc3)cc1)nn2C1CCCN(C(=O)C=CCCCCOCCOCCOCCOCCOc2cccc3c2C(=O)N(C2CCC(=O)NC2=O)C3=O)C1 (stereo not shown) [IR-2] | not significantly affected | degraded the known ibrutinib off-targets CSK, LYN, and BLK | -0.1649 | -0.1913 | -0.004671 | 0.772 |  |  | -0.3401 | -0.09776 | Difference for 50 nM, POM121C (protein POM121C, 50 nM, Log2 fold-change vs DMSO): 0.7405; Difference for 100 nM, POM121C (protein POM121C, 100 nM, Log2 fold-change vs DMSO): 0.8148; Difference for 50 nM, RASA4;RASA4B (proteins RASA4;RASA4B, 50 nM, Log2 fold-change vs DMSO): 0.1914; Difference for 100 nM, RASA4;RASA4B (proteins RASA4;RASA4B, 100 nM, Log2 fold-change vs DMSO): -0.07223
Nc1ncnc2c1c(-c1ccc(Oc3ccccc3)cc1)nn2C1CCCN(C(=O)CCCCCCOCCOCCOCCOCCOc2cccc3c2C(=O)N(C2CCC(=O)NC2=O)C3=O)C1 (stereo not shown) [NC-1] | not significantly affected | degraded the known ibrutinib off-targets CSK, LYN, and BLK |  |  |  |  | 0.1494 | 0.1711 | -0.1034 | 0.1967 | BTK degradation (proteomics) (50 or 100 nM): highest degradation potency against BTK; Difference for 50 nM, NUDT19 (protein NUDT19 (A8MXV4), 50 nM, Log2 fold-change vs DMSO): 0.09117; Difference for 100 nM, NUDT19 (protein NUDT19 (A8MXV4), 100 nM, Log2 fold-change vs DMSO): 0.676; Difference for 50 nM, ZC3H12D (protein ZC3H12D (A2A288), 50 nM, Log2 fold-change vs DMSO): -0.03901; Difference for 100 nM, ZC3H12D (protein ZC3H12D (A2A288), 100 nM, Log2 fold-change vs DMSO): -0.07076; Difference for 50 nM, SNRPG;SNRPGP15 (proteins SNRPG;SNRPGP15, 50 nM, Log2 fold-change vs DMSO): -0.1263; Difference for 100 nM, SNRPG;SNRPGP15 (proteins SNRPG;SNRPGP15, 100 nM, Log2 fold-change vs DMSO): 0.0004592
N#CC(=CCCCCOCCOCCOCCOCCOc1cccc2c1C(=O)N(C1CCC(=O)NC1=O)C2=O)C(=O)N1CCCC(n2nc(-c3ccc(Oc4ccccc4)cc3)c3c(N)ncnc32)C1 (stereo not shown) [RC-2] | not significantly affected | degraded the known ibrutinib off-targets CSK, LYN, and BLK | -0.2599 | 0.08889 |  |  |  |  | -0.1598 | 0.1213 | Difference for 50 nM, ESYT2 (protein ESYT2 (A0FGR8), 50 nM, Log2 fold-change vs DMSO): 0.001137; Difference for 100 nM, ESYT2 (protein ESYT2 (A0FGR8), 100 nM, Log2 fold-change vs DMSO): -0.137; Difference for 50 nM, HAX1 (protein HAX1 (O00165), 50 nM, Log2 fold-change vs DMSO): -0.1673; Difference for 100 nM, HAX1 (protein HAX1 (O00165), 100 nM, Log2 fold-change vs DMSO): 0.4145; Difference for 50 nM, UNC119B (protein UNC119B (A6NIH7), 50 nM, Log2 fold-change vs DMSO): -0.2229; Difference for 100 nM, UNC119B (protein UNC119B (A6NIH7), 100 nM, Log2 fold-change vs DMSO): -0.06661
CC(C)(C=C(C#N)C(=O)N1CCCC(n2nc(-c3ccc(Oc4ccccc4)cc3)c3c(N)ncnc32)C1)CCCOCCOCCOCCOCCOc1cccc2c1C(=O)N(C1CCC(=O)NC1=O)C2=O (stereo not shown) [RC-3] |  | the only significant off-target of RC-3 was BLK |  |  | 0.1151 | 0.03137 |  |  | -0.1457 | 0.000999 | activity against noncovalent off-targets CSK and LYN (50 or 100 nM): no activity; Difference for 50 nM, SAC3D1 (protein SAC3D1 (A6NKF1), 50 nM, Log2 fold-change vs DMSO): -1.386; Difference for 100 nM, SAC3D1 (protein SAC3D1 (A6NKF1), 100 nM, Log2 fold-change vs DMSO): -0.4129; Difference for 50 nM, TRAPPC13 (protein TRAPPC13 (A5PLN9), 50 nM, Log2 fold-change vs DMSO): -0.1201; Difference for 100 nM, TRAPPC13 (protein TRAPPC13 (A5PLN9), 100 nM, Log2 fold-change vs DMSO): -0.2022; Difference for 50 nM, GPR89B;GPR89A (proteins GPR89B;GPR89A, 50 nM, Log2 fold-change vs DMSO): -0.3119; Difference for 100 nM, GPR89B;GPR89A (proteins GPR89B;GPR89A, 100 nM, Log2 fold-change vs DMSO): -0.8716

Reference: article PMC7349657, “Efficient Targeted Degradation via Reversible and Irreversible Covalent PROTACs” (Journal of the American Chemical Society, 2020)
